Legend:
[1] = molecular target: T1, human orexin type 2 receptor (Homo sapiens, UniProt O43614); assay: Measurement of orexin type 2 receptor agonist activity (calcium indicator fluorescence, CHO cells forcibly expressing human OX2 receptor); format: cell-based; settings: compound at 3 μM; 0% = DMSO, 100% = orexin A (human) 10 nM
T1 construct: expressed in transfected cells
T1 sequence (O43614 1-444): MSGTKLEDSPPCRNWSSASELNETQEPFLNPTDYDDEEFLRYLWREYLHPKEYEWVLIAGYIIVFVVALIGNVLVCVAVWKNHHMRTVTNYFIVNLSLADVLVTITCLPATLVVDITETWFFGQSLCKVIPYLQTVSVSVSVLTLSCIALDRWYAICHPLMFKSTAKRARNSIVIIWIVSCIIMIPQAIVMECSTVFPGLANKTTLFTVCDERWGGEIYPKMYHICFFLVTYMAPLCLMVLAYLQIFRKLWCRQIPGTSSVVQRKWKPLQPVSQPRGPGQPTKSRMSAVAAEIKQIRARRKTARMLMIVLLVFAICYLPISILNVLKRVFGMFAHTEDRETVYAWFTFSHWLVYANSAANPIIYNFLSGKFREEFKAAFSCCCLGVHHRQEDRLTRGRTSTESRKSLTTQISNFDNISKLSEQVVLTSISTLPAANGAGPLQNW
How it was run: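 CHO-dhfr cells stably expressing human OX2R, loaded with Fluo-4 AM (30 min 37 °C, then 30 min RT), then given test compound. Calcium fluorescence read by FDSS over ~2 min. Activity (%) scaled from DMSO (0%) to 10 nM final orexin A (100%).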

cynomolgus monkeys = assay: Evaluation of wake-promoting effects in cynomolgus monkeys (EEG/EMG); format: in vivo, cynomolgus monkey; settings: Macaca fascicularis, time spent in wakefulness for 4 h after administration, read-out: Wakefulness time (% of vehicle treatment) (Mean); for response vs control in vivo at 0.3 mg/kg / response vs control in vivo at 0.1 mg/kg: sc; for response vs control in vivo at 0.3 mg/kg: 0.3 mg/kg s.c. at ZT12; for response vs control in vivo at 0.1 mg/kg: 0.1 mg/kg s.c. at ZT12
Protocol: The wake-promoting effects were evaluated by measuring the electroencephalogram (EEG) and electromyogram (EMG) in cynomolgus monkeys. Under isoflurane anesthesia (1-5%, Pfizer Japan Inc., Tokyo, Japan), male cynomolgus monkeys (3-5 years old, Hamri Co., Ltd., Ibaraki, Japan) were surgically implanted with radio-telemetry transmitters (TL10M3-D70-EEE, Data Sciences International Inc., MN, USA). EEG electrodes were screwed into the skull at the parietal area. EMG electrodes were implanted on the cervical muscles. After the surgery, each monkey was given penicillin (100,000 units/head, i.m., Meiji Seika Pharma Co., Ltd., Tokyo, Japan), buprenorphine (0.02 mg/kg, i.m., Otsuka Pharmaceutical Co., Ltd., Tokyo, Japan) and prednisolone (1 mg/kg, s.c., Kyoritsu Seiyaku Co., Ltd., Tokyo, Japan) daily for one week. After at least a 1-month recovery period in home cages, the monkeys were habituated to the recording chamber placed in a soundproof room. EEG and EMG signals were recorded using the telemetry system (Dataquest ART software, Data Sciences International Inc., MN, USA) and the signals were analyzed using SleepSign software (Kissei Comtec Co., Ltd., Nagano, Japan). After confirming long sleep in dark phase in the experimental room, we used animals to examine the wake-promoting effect of compounds.
Oral test compounds (3 or 10 mg/kg) suspended in 0.5% methylcellulose aqueous solution, or vehicle (i.e., 0.5% methylcellulose aqueous solution) was administered orally (p.o.) to monkeys at zeitgeber time 12 (ZT12) in a volume of 5 mL/kg body weight in cross-over design or pre-post design (n=1-4). EEG and EMG recordings were performed for 4 h after the compound administration. The time spent in wakefulness for 4 h after administration (% of vehicle treatment) was calculated by using SleepSign.
Parenteral test compounds (0.1 or 0.3 mg/kg) dissolved in a mixed solution comprising 5% DMSO, 5% Cremophor EL, 20% PEG400 and 70% soluplus (1% (w/v)), or vehicle (i.e., a mixed solution comprising 5% DMSO, 5% Cremophor EL, 20% PEG400 and 70% soluplus (1% (w/v))) was administered subcutaneously (s.c.) to monkeys at ZT12 in a volume of 0.5 mL/kg body weight in a pre-post design (n=1-2). EEG and EMG recordings were performed for 4 h after the compound administration. The time spent in wakefulness for 4 h after administration (% of vehicle treatment) was calculated by using SleepSign.

SMILES: Cc1cccc(-c2cccc(C[C@H]3[C@@H](NS(=O)(=O)N(C)C)[C@@H](F)CN3C(=O)C3(O)CCC3)c2F)c1 [Example 462, N′-[(2S,3R,4S)-4-fluoro-2-[(2-fluoro-3′-methyl[1,1′-biphenyl]-3-yl)methyl]-1-(1-hydroxycyclobutane-1-carbonyl)pyrrolidin-3-yl]-N,N-dimethylsulfuric diamide]
- OX2R agonist activity (3 μM, %) [1]: 78%
- response vs control in vivo at 0.3 mg/kg (cynomolgus monkeys): 365%

SMILES: CCS(=O)(=O)N[C@@H]1[C@H](Cc2cccc(-c3cc(F)cc(F)c3)c2F)N(C(=O)C(C)(C)O)CC1(F)F [Example 3, N-{(2S,3R)-4,4-difluoro-1-(2-hydroxy-2-methylpropanoyl)-2-[(2,3′,5′-trifluoro[1,1′-biphenyl]-3-yl)methyl]pyrrolidin-3-yl}ethanesulfonamide]
- OX2R agonist activity (3 μM, %) [1]: 106%
- response vs control in vivo at 3 mg/kg (cynomolgus monkeys; po, 3 mg/kg p.o. at ZT12): 613%

SMILES: CCS(=O)(=O)N[C@H]1[C@@H](F)CN(C(=O)N2CCC2)[C@H]1Cc1cccc(-c2cc(F)cc(F)c2)c1F [Example 450, N-{(2S,3R,4S)-1-(azetidine-1-carbonyl)-4-fluoro-2-[(2,3′,5′-trifluoro[1,1′-biphenyl]-3-yl)methyl]pyrrolidin-3-yl}ethanesulfonamide]
- OX2R agonist activity (3 μM, %) [1]: 86%
- response vs control in vivo at 0.3 mg/kg (cynomolgus monkeys): 814%

SMILES: Cc1cccc(-c2cccc(C[C@H]3[C@@H](NS(=O)(=O)N(C)C)C(F)(F)CN3C(=O)N3CCC3)c2F)c1 [Example 443, N′-{(2S,3R)-1-(azetidine-1-carbonyl)-4,4-difluoro-2-[(2-fluoro-3′-methyl[1,1′-biphenyl]-3-yl)methyl]pyrrolidin-3-yl}-N,N-dimethylsulfuric diamide]
- OX2R agonist activity (3 μM, %) [1]: 90%
- response vs control in vivo at 0.1 mg/kg (cynomolgus monkeys): 532%

SMILES: CN(C)S(=O)(=O)N[C@@H]1[C@H](Cc2cccc(-c3cc(F)cc(F)c3)c2F)N(C(=O)[C@H]2CCO2)CC1(F)F [Example 542, N′-{(2S,3R)-4,4-difluoro-1-[(2R)-oxetane-2-carbonyl]-2-[(2,3′,5′-trifluoro[1,1′-biphenyl]-3-yl)methyl]pyrrolidin-3-yl}-N,N-dimethylsulfuric diamide]
- OX2R agonist activity (3 μM, %) [1]: 100%
- response vs control in vivo at 0.3 mg/kg (cynomolgus monkeys): 505%

SMILES: Cc1cccc(-c2cccc(C[C@H]3[C@@H](NS(=O)(=O)N(C)C)[C@@H](F)CN3C(=O)N3CCC3)c2F)c1 [Example 463, N′-{(2S,3R,4S)-1-(azetidine-1-carbonyl)-4-fluoro-2-[(2-fluoro-3′-methyl[1,1′-biphenyl]-3-yl)methyl]pyrrolidin-3-yl}-N,N-dimethylsulfuric diamide]
- OX2R agonist activity (3 μM, %) [1]: 79%
- response vs control in vivo at 0.1 mg/kg (cynomolgus monkeys): 483%

SMILES: Cc1cccc(-c2cccc(C[C@H]3[C@@H](NS(=O)(=O)N(C)C)C(F)(F)CN3C(=O)N(C)C)c2F)c1 [Example 442, (2S,3R)-3-[(dimethylsulfamoyl)amino]-4,4-difluoro-2-[(2-fluoro-3′-methyl[1,1′-biphenyl]-3-yl)methyl]-N,N-dimethylpyrrolidine-1-carboxamide]
- OX2R agonist activity (3 μM, %) [1]: 96%

SMILES: CCS(=O)(=O)N[C@@H]1[C@H](Cc2cccc(-c3cccc(F)c3)c2F)N(C(=O)[C@H]2CCCO2)CC1(F)F [Example 453, N-{(2S,3R)-2-[(2,3′-difluoro[1,1′-biphenyl]-3-yl)methyl]-4,4-difluoro-1-[(2R)-oxolane-2-carbonyl]pyrrolidin-3-yl}ethanesulfonamide]
- OX2R agonist activity (3 μM, %) [1]: 85%

SMILES: CCS(=O)(=O)N[C@H]1[C@@H](F)CN(C(=O)N(C)C)[C@H]1Cc1cccc(-c2cccc(Cl)c2)c1F [Example 332, (2S,3R,4S)-2-[(3′-chloro-2-fluoro[1,1′-biphenyl]-3-yl)methyl]-3-[(ethanesulfonyl)amino]-4-fluoro-N,N-dimethylpyrrolidine-1-carboxamide]
- OX2R agonist activity (3 μM, %) [1]: 95%

SMILES: CCS(=O)(=O)N[C@@H]1[C@H](Cc2cccc(-c3ccccc3)c2)N(C(=O)C2CCO2)CC1(F)F (stereo partly drawn) [Example 50, N-[(2S,3R)-2-[([1,1′-biphenyl]-3-yl)methyl]-4,4-difluoro-1-(oxetane-2-carbonyl)pyrrolidin-3-yl]ethanesulfonamide]
- OX2R agonist activity (3 μM, %) [1]: 99%

SMILES: CCS(=O)(=O)N[C@H]1[C@@H](F)CN(C(=O)C(C)C)[C@H]1Cc1cccc(-c2cc(F)cc(F)c2)c1F [Example 296, N-{(2S,3R,4S)-4-fluoro-1-(2-methylpropanoyl)-2-[(2,3′,5′-trifluoro[1,1′-biphenyl]-3-yl)methyl]pyrrolidin-3-yl}ethanesulfonamide]
- OX2R agonist activity (3 μM, %) [1]: 96%

SMILES: Cc1cc(F)cc(-c2cccc(C[C@H]3[C@@H](NS(=O)(=O)N(C)C)C(F)(F)CN3C(=O)[C@H]3CCO3)c2F)c1 [Example 540, N′-{(2S,3R)-2-[(2,3′-difluoro-5′-methyl[1,1′-biphenyl]-3-yl)methyl]-4,4-difluoro-1-[(2R)-oxetane-2-carbonyl]pyrrolidin-3-yl}-N,N-dimethylsulfuric diamide]
- OX2R agonist activity (3 μM, %) [1]: 100%

SMILES: CS(=O)(=O)N[C@@H]1[C@H](Cc2cccc(-c3cccc(F)c3F)c2F)N(C(=O)[C@@H]2CCO2)CC1(F)F [Example 133, N-{(2S,3R)-4,4-difluoro-1-((2S)-oxetane-2-carbonyl)-2-[(2,2′,3′-trifluoro[1,1′-biphenyl]-3-yl)methyl]pyrrolidin-3-yl}methanesulfonamide]
- OX2R agonist activity (3 μM, %) [1]: 96%

SMILES: CS(=O)(=O)N[C@@H]1[C@H](Cc2cccc(-c3cccc(F)c3)c2F)N(C(=O)C2CC(F)C2)CC1(F)F (stereo partly drawn) [Example 392, N-[(2S,3R)-2-[(2,3′-difluoro[1,1′-biphenyl]-3-yl)methyl]-4,4-difluoro-1-(3-fluorocyclobutane-1-carbonyl)pyrrolidin-3-yl]methanesulfonamide]
- OX2R agonist activity (3 μM, %) [1]: 97%

SMILES: CC(C)(O)C(=O)N1C[C@H](F)[C@H](NS(=O)(=O)C2CC2)[C@@H]1Cc1cccc(-c2cccc(F)c2F)c1F [Example 371, N-{(2S,3R,4S)-4-fluoro-1-(2-hydroxy-2-methylpropanoyl)-2-[(2,2′,3′-trifluoro[1,1′-biphenyl]-3-yl)methyl]pyrrolidin-3-yl}cyclopropanesulfonamide]
- OX2R agonist activity (3 μM, %) [1]: 94%

SMILES: Cc1cc(F)cc(-c2cccc(C[C@H]3[C@@H](NS(=O)(=O)C4CC4)[C@@H](F)CN3C(=O)C3CCO3)c2F)c1 (stereo partly drawn) [Example 491, N-[(2S,3R,4S)-2-[(2,3′-difluoro-5′-methyl[1,1′-biphenyl]-3-yl)methyl]-4-fluoro-1-(oxetane-2-carbonyl)pyrrolidin-3-yl]cyclopropanesulfonamide]
- OX2R agonist activity (3 μM, %) [1]: 93%

SMILES: CC(C)(O)C(=O)N1C[C@H](F)[C@H](NS(C)(=O)=O)[C@@H]1Cc1cccc(-c2cc(F)cc(Cl)c2)c1F [Example 391, N-[(2S,3R,4S)-2-[(3′-chloro-2,5′-difluoro[1,1′-biphenyl]-3-yl)methyl]-4-fluoro-1-(2-hydroxy-2-methylpropanoyl)pyrrolidin-3-yl]methanesulfonamide]
- OX2R agonist activity (3 μM, %) [1]: 92%

Source: US20230040770A1, “HETEROCYCLIC COMPOUND AND USE THEREOF” (TAKEDA PHARMACEUTICAL COMPANY LIMITED, priority 2019, published 2023)
